Laboratory results published in PubChem BioAssay (NCI).
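Cells were grown in 96-well plates and exposed to each compound for 48 hours at five concentrations; endpoints were interpolated linearly between bracketing concentrations, or set to the highest concentration if not reached. TGI: total growth inhibition.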 Where a SMILES comes first, the peptide text is derived from it. [ ]: non-standard residue; d: D form. The star is where a group is joined. NMeV = CN[C@H](C(=O)O)C(C)C; X29 = COc1ccc(CN*)c(OC)c1; Octanoyl = CCCCCCCC(=O)*; dNMeA = CN[C@H](C)C(=O)O

Key:
Test in all cases: growth of human tumour cells (NCI), 48 h
[1] = system: HCT-116 colon
[2] = system: SK-MEL-2 melanoma
[3] = system: UACC-62 melanoma
[4] = system: HOP-62 NSCLC
[5] = system: SF-295 CNS
[6] = system: SF-539 CNS
[7] = system: MALME-3M melanoma
[8] = system: OVCAR-5 ovarian
[9] = system: MDA-MB-231 breast
[10] = system: K-562 leukemia
[11] = system: UACC-257 melanoma
[12] = system: SK-MEL-28 melanoma
[13] = system: OVCAR-8 ovarian
[14] = system: PC-3 prostate
[15] = system: OVCAR-3 ovarian
[16] = system: NCI/ADR-RES ovarian
[17] = system: LOX IMVI melanoma
[18] = system: HT29 colon

Structure (SMILES) | TGI [1] | TGI [2] | TGI [3] | TGI [4] | TGI [5] | TGI [6] | TGI [7] | TGI [8] | TGI [9] | TGI [10] | TGI [11] | TGI [12] | TGI [13] | TGI [14] | TGI [15] | TGI [16] | TGI [17] | TGI [18]
CCCCCCCC(=O)N[C@H](C(=O)N[C@H](C(=O)N(C)[C@H](C(=O)N1CCC[C@H]1C(=O)N(C)[C@H](C)C(=O)NCc1ccc(OC)cc1OC)C(C)C)C(C)C)C(C)C (Octanoyl-VV[NMeV]P[dNMeA]-X29) | > 50.1 µM | 42.3 µM | 23.7 µM | > 100 µM | > 88.7 µM | > 60.4 µM | 24.3 µM | > 100 µM | 35.5 µM | > 100 µM | 60.7 µM | > 68.2 µM | > 100 µM | 58.7 µM | > 100 µM | > 100 µM | 30.8 µM | > 85.2 µM
O=c1[nH]cc(-c2c[nH]c3ccccc23)nc1-c1c[nH]c2ccccc12 | 26.7 µM | 34.2 µM | 23.7 µM | 27.3 µM | 19 µM | 55.5 µM | 24.1 µM | 27.6 µM | 89.2 µM | 9.21 µM | 26.9 µM | 31.7 µM | 25.7 µM | 51.1 µM | 23.3 µM | 49.8 µM | 27.5 µM | –
NC(N)=NCC[C@H](NC(=O)OCCCCCn1ccc(=O)[nH]c1=O)C(=O)O | > 100 µM | > 100 µM | > 100 µM | > 100 µM | > 100 µM | > 100 µM | > 100 µM | > 100 µM | > 100 µM | > 100 µM | > 100 µM | > 100 µM | > 100 µM | > 100 µM | > 100 µM | > 100 µM | > 100 µM | > 100 µM
CC1(C)C=Cc2c(cc(O)c3c(=O)c4cc(Cl)ccc4[nH]c23)O1 | > 10 µM | 9.75 µM | > 10 µM | > 10 µM | 8.25 µM | > 10 µM | 7.5 µM | 6.16 µM | > 10 µM | > 10 µM | > 10 µM | > 10 µM | > 10 µM | 7.12 µM | 3.01 µM | 5.97 µM | 8.11 µM | > 10 µM
C=CCC1(OCc2ccccc2)C(=O)C(=O)OC1C1COC(C)(C)O1 (stereo not drawn) | > 100 µM | > 100 µM | > 100 µM | > 100 µM | > 100 µM | > 100 µM | > 100 µM | > 100 µM | > 100 µM | > 100 µM | > 100 µM | > 100 µM | > 100 µM | > 100 µM | > 100 µM | > 100 µM | > 100 µM | > 100 µM
CNC(=O)C1(N)c2ccccc2C=Cc2ccccc21 | > 100 µM | > 100 µM | > 100 µM | > 100 µM | > 100 µM | > 100 µM | > 100 µM | > 100 µM | > 100 µM | > 100 µM | – | > 100 µM | > 100 µM | > 100 µM | > 100 µM | > 100 µM | > 100 µM | > 100 µM
COC(=O)[C@H](CCSC)NC(=O)N[C@H](C)c1ccccc1 | > 100 µM | > 100 µM | > 100 µM | > 100 µM | > 100 µM | > 100 µM | > 100 µM | > 100 µM | > 100 µM | > 100 µM | > 100 µM | > 100 µM | > 100 µM | > 100 µM | > 100 µM | > 100 µM | > 100 µM | > 100 µM
COc1ccc(C(=O)/C=C/c2ccc(O)c(O)c2)c(OC)c1 | 16.1 µM | 9.82 µM | 14.4 µM | 60.3 µM | 31 µM | 7.55 µM | 21.8 µM | 47.2 µM | 27.3 µM | > 37.6 µM | 15.3 µM | 48.4 µM | > 86.6 µM | 26.4 µM | 2.66 µM | > 61.2 µM | 26.4 µM | 32 µM
Nc1n[n+](CC(=O)c2ccccc2)c2sc(-c3ccccc3)nn12 | > 100 µM | > 100 µM | 82.7 µM | > 100 µM | > 100 µM | > 100 µM | > 100 µM | > 100 µM | > 100 µM | > 100 µM | > 100 µM | > 100 µM | > 100 µM | > 100 µM | > 100 µM | > 100 µM | > 100 µM | > 100 µM
Oc1ccc(-c2cc(-c3cc(-c4ccc(O)cc4)no3)on2)cc1 | > 100 µM | > 100 µM | > 100 µM | > 100 µM | > 100 µM | > 49.7 µM | > 100 µM | > 100 µM | > 100 µM | > 100 µM | > 31.1 µM | > 100 µM | > 100 µM | > 100 µM | > 100 µM | > 100 µM | > 100 µM | > 100 µM
CN(C)c1ccc(C(Cc2ccccc2)C2NC(=S)NC2=O)cc1 (stereo not drawn) | > 100 µM | > 100 µM | > 100 µM | > 100 µM | > 100 µM | > 100 µM | > 100 µM | > 100 µM | > 100 µM | > 100 µM | > 100 µM | > 100 µM | > 100 µM | > 100 µM | > 100 µM | > 100 µM | > 100 µM | > 100 µM
CCN1CCC(C)OP1(=O)Cc1ccccc1 (stereo not drawn) | > 100 µM | > 100 µM | > 100 µM | > 100 µM | > 100 µM | > 100 µM | > 100 µM | > 100 µM | > 100 µM | > 100 µM | > 100 µM | – | > 100 µM | > 100 µM | > 100 µM | > 100 µM | > 100 µM | > 100 µM
Cc1ccc(NC(Nc2ccc(C)cc2C)=C(/C=C(\Cl)[N+](=O)[O-])[N+](=O)[O-])c(C)c1 | 3.14 µM | 16.9 µM | 10 µM | 34.1 µM | 31.2 µM | 23.3 µM | 7.13 µM | 19.7 µM | 17.3 µM | 3.75 µM | 13.1 µM | 4.77 µM | 7.86 µM | 17.2 µM | 8.7 µM | 48.8 µM | 3.25 µM | 18.8 µM
O=C(O)C12C3CCC(CC3)C1(C(=O)O)C1CCC2C1 (stereo not drawn) | > 100 µM | > 100 µM | > 100 µM | > 100 µM | > 100 µM | > 100 µM | > 100 µM | > 100 µM | > 100 µM | > 100 µM | > 100 µM | > 100 µM | > 100 µM | > 100 µM | > 100 µM | > 100 µM | > 100 µM | > 100 µM
C=C(Br)CNC(=O)Nc1ccc(Cl)c(Cl)c1 | 32.7 µM | 32.8 µM | 49 µM | 48.1 µM | 67.2 µM | 39 µM | 48.6 µM | 92.4 µM | 32.9 µM | 90.5 µM | – | > 100 µM | – | 48 µM | 38.8 µM | 43.6 µM | 43.6 µM | 73.4 µM
O=C(NNCC(O)COc1ccccc1)c1ccccc1 (stereo not drawn) | > 100 µM | > 100 µM | > 100 µM | > 100 µM | > 100 µM | > 100 µM | > 100 µM | > 100 µM | > 100 µM | > 100 µM | > 100 µM | > 100 µM | > 100 µM | > 100 µM | > 100 µM | > 100 µM | > 100 µM | > 100 µM
O=[N+]([O-])c1nccn1CCCNc1ccnc2cc(Cl)ccc12 | > 100 µM | > 95.7 µM | > 8.46 µM | > 92.4 µM | > 100 µM | > 88.7 µM | > 57.3 µM | > 100 µM | > 100 µM | > 100 µM | > 9.02 µM | > 100 µM | > 100 µM | > 100 µM | > 100 µM | > 100 µM | > 100 µM | 99.6 µM
CC1(/C=C/CCSc2ccccc2)CC(=O)C2CC1C2(C)C (stereo not drawn) | > 100 µM | > 55.9 µM | > 60 µM | > 100 µM | > 100 µM | 31.5 µM | > 69.7 µM | > 100 µM | > 100 µM | > 100 µM | > 73.6 µM | > 100 µM | > 100 µM | > 100 µM | > 91.3 µM | > 61.8 µM | 43.9 µM | 29.4 µM
C=CCN1C(=O)/C(=C/c2cccs2)N=C1SC/C=C/C | > 100 µM | 65.8 µM | > 100 µM | > 100 µM | > 100 µM | > 100 µM | 96.6 µM | > 100 µM | > 100 µM | > 100 µM | > 100 µM | > 100 µM | > 100 µM | > 100 µM | > 100 µM | > 100 µM | > 100 µM | > 100 µM
O=C(CCCN1CCC2(CC1)CC(c1ccccc1)OC2=O)c1ccc(F)cc1 (stereo not drawn) | > 100 µM | > 100 µM | 61.9 µM | 73.7 µM | 60.9 µM | 53.1 µM | 44 µM | > 100 µM | > 100 µM | 65.8 µM | 52.1 µM | > 100 µM | > 100 µM | > 100 µM | > 100 µM | > 100 µM | 45.1 µM | 35.2 µM
CCC1(c2ccccc2)C(=O)N=C(c2ccccc2)N1CCc1ccccc1 (stereo not drawn) | > 100 µM | > 100 µM | > 100 µM | > 100 µM | > 100 µM | > 100 µM | > 100 µM | > 100 µM | > 100 µM | > 100 µM | > 100 µM | > 100 µM | > 100 µM | > 100 µM | > 100 µM | > 100 µM | > 100 µM | > 100 µM
CCN1C(=O)c2cc(OC)c(OC)cc2C(=O)C12OC(=O)c1cc3c(cc12)OCO3 (stereo not drawn) | > 100 µM | 49.9 µM | > 100 µM | > 100 µM | > 100 µM | > 100 µM | > 100 µM | > 100 µM | > 100 µM | > 100 µM | > 100 µM | > 100 µM | > 100 µM | > 100 µM | > 100 µM | > 100 µM | > 100 µM | > 100 µM
CCOC(=O)C1=NOC2(C=C(Br)C(=O)C(Br)=C2)C1 | 2.63 µM | 15 µM | 8.54 µM | 16.2 µM | 32.4 µM | 20.2 µM | 1.25 µM | 12.6 µM | 21.9 µM | 6.42 µM | 2.71 µM | 24.7 µM | 5.3 µM | 5.31 µM | – | > 26.6 µM | 7.63 µM | 4.68 µM
